Experimental findings from US4163662A, “Liquid formulations of 1-(3,4-dichlorophenyl)-3-methoxy-3-methylurea and selected chloroacetamides” (E. I. Du Pont de Nemours and Company, priority 1977, dated 1979) are described below.

Holding throughout (assay type): physicochemical
Series [1] in a line: Cold Storage Test at -5° C., propachlor/linuron in trichloroethylene (Table I). The settings on record: for Max. Stable concentration (no crystallization) / Min. Unstable concentration (crystals first appear): total active ingredient. An excerpt:
The temperature limits below which crystallization of solute will occur can be measured by storing samples in a controlled temperature chest, seeding with tiny crystals of pure materials and observing the growth or disappearance of crystals after a period of several days. If no crystals form, the process is then repeated at a lower temperature, until the limit of stability has been found. However, crystallization characteristics can be also meaningfully, rapidly and conveniently measured by a determination of the cloud point of the system.
(§1) Purified linuron, purified propachlor, purified alachlor and commercial "Triclene" (trichloroethylene, technical) are used in the procedure. Samples containing various ratios and concentrations of linuron, propachlor, and linuron-propachlor mixtures are placed in a cold chest. The temperature is lowered and samples are seeded with traces of dust of the active ingredients after the solution has been cooled to the test temperature of -5° C. The samples are then observed over the course of at least 3 to 4 days to determine whether crystallization has occurred. When the temperature of the system is maintained within the range of -4.5° to -5.0° C. for 4 days after seeding. The maximum solution concentration in grams of active ingredient per 100 grams of solvent, at which no crystallization occurs (Max. Stable), and the minimum solution concentration at which crystals first appear (Min. Unstable) are observed.

The nature of series [2]: Amount of insoluble crystalline material after room temperature storage (Tables III, IV, V). The method, then:
Samples weighing 5 grams each total weight were prepared by mixing the indicated solids and liquids, in the indicated proportions and shaking in closed vials, which were sealed with epoxy cement to prevent evaporation.
Tables III, IV, and V show the proportions of each mixture and the amounts of insoluble, crystalline material observed in each case after room temperature storage: […]

A short description of series [3]: Cold Storage Test at 3° C. and at -8° to -9° C., alachlor/linuron (Table II). The settings on record: for Max. Stable concentration / Min. Unstable concentration: total active ingredient. The method, then: as §1
A similar test was run replacing propachlor with alachlor and at ^+ 3° C. and at -8° to -9° C. with the following results: […]

For `CON(C)C(=O)Nc1ccc(Cl)c(Cl)c1` [Linuron, 1-(3,4-dichlorophenyl)-3-methoxy-3-methylurea], in series [1], the “Max. Solubility Range, Linuron” value is 4.1-5.2 grams/100 grams Solvent. For the same molecule, the “Max. Stable concentration (no crystallization)” value in series [1] was determined as 4.1 grams/100 grams Solvent. The “Min. Unstable concentration (crystals first appear)” value in series [1] came out at 5.2 grams/100 grams Solvent. For the same molecule, the crystalline material result in series [2] (5 weight % linuron, 95% tetrachloroethylene, room temperature) is on record as “moderate”; in series [2] (9 weight % linuron, 91% tetrachloroethylene, room temperature) it was “heavy”; in series [2] (9 weight % linuron, 91% xylene, room temperature), “slight”; in series [2] (10 weight % linuron, 90% "Panasol" AN-3, room temperature), “moderate”; in series [2] (15 weight % linuron, 85% "Panasol" AN-3, room temperature), “heavy”; in series [2] (17 weight % linuron, 83% xylene, room temperature), “heavy”. The “dissolution result on shaking in the solvent” value in series [2] (hydrocarbons and halocarbons, room temperature) was “crystals remained”. The “Max. Solubility Range For Linuron” value in series [3] (3° C.) was 4.1-4.7 grams/100 grams Solvent; in series [3] (-8° to -9° C.), 3.6-4.1 grams/100 grams Solvent. The “Max. Stable concentration” value amounted to 4.1 grams/100 grams Solvent in series [3] (3° C.) and 3.6 grams/100 grams Solvent in series [3] (-8° to -9° C.). Also, the “Min. Unstable concentration” value in series [3] (3° C.) stood at 4.7 grams/100 grams Solvent; in series [3] (-8° to -9° C.), 4.1 grams/100 grams Solvent.
Turning to `CC(C)N(C(=O)CCl)c1ccccc1` [Propachlor, 2-chloro-N-isopropylacetanilide], in series [1], the “Max. Solubility Range, Propachlor” value is listed as 21.9-25 grams/100 grams Solvent; the “Max. Stable concentration (no crystallization)” value was found to be 21.9 grams/100 grams Solvent; the “Min. Unstable concentration (crystals first appear)” value was determined as 25 grams/100 grams Solvent. In series [2] (18 weight % propachlor, 82% tetrachloroethylene, room temperature), the crystalline material entry is recorded as “moderate”. The crystalline material entry in series [2] (30 weight % propachlor, 70% "Panasol" AN-3, room temperature) was “moderate”. The crystalline material result in series [2] (34 weight % propachlor, 66% xylene, room temperature) was “moderate”.
